Tests used:
[1] = molecular target: T1, Human immunodeficiency virus type 1 integrase (Human immunodeficiency virus 1, UniProt Q7ZJM1); assay: Inhibition of HIV1 integrase using U5A/U5B double-stranded DNA as substrate by ELISA
[2] = test system: Human immunodeficiency virus 1; assay: Antiviral activity against HIV1 3B infected in human MT4 cells assessed as inhibition of virus-induced cytopathic effect by MTT assay; type: functional, organism-based; conditions: Human immunodeficiency virus 1, 3B
[3] = Cytotoxicity against human MT4 cells by MTT assay; type: cell-based
[4] = molecular target: T1, Human immunodeficiency virus type 1 integrase; assay: Inhibition of HIV1 integrase using U5A/U5B double-stranded DNA as substrate by ELISA in presence of BSA

T1 sequence (Q7ZJM1 whole entry): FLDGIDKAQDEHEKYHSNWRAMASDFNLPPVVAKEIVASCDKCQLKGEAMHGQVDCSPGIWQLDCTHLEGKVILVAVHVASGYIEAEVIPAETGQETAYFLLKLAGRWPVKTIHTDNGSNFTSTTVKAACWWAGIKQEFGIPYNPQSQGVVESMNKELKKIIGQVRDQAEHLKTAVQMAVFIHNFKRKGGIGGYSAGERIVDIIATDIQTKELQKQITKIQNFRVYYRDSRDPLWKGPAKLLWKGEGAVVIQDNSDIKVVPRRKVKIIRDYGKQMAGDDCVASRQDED

## O=C(O)C(O)C(O)(Cc1ccc(O)c(O)c1)C(=O)O (racemic)
[1]
  IC50: 0.25 µM
[2]
  EC50: > 22 µM
[3]
  CC50: 22 µM
[4]
  IC50: 17 µM

Reference: ChEMBL document CHEMBL1154442, “The total synthesis of fukiic acid, an HIV-1 integrase inhibitor” (Eur J Med Chem, 2008)
